Results: US10793482B2, “Compounds and compositions for delivery of nutrients and micronutrients to plants” (Spero Energy, Inc., priority 2015, dated 2020)

Columns and labels:
Type in all cases: in vivo
[1] = system: bell pepper plants, Capsicum annuum; experiment: Iron content in leaves of bell pepper plants grown hydroponically with Fe chelates (elemental analysis); settings: for Amount of iron delivered / iron content by plant tissue analyses (in words): bell pepper plants, 4 ppm iron chelate, compared with EDTA or EDDHA chelates; for Iron content in plant leaves: leaves after week 2, finished iron solution of 4 ppm in no-iron Steiner hydroponic solution, pH 8
Method: (§1) Seven (7) identical cultivated varieties of bell pepper plants, Capsicum annuum were grown in individual five-gallon containers deep-water-culture (DWC) containers (the Root Spa bucket system by Hydrofarm) that is continuously aerated by a single oxygen line that stems from an air pump in a soilless media of rockwool surrounded by clay pebbles in a mesh tray that rests on top of the buckets. The pepper plants were grown indoors with an ambient air temperature of around 72° F. The light source came from high-pressure sodium bulbs with a light interval of 12 hours on and 12 hours off.
(§2) The pepper plants were grown with a beginning identical nutritional mix similar to that of a Steiner hydroponic solution. […] The total solution pH was raised to 8 and adjusted daily to maintain the pH at 8. Potassium hydroxide was used to increase the pH. There were 7 treatments of iron added (or not added) to each bucket as follows:
(§3) As more water was needed, the appropriate amount of no-iron Steiner solution and Fe-chelate/Fe-chelate mixture was added to maintain a finished iron solution of 4 ppm.
(§4) Leaf samples (at least two per plant) were collected at the end of the normal nutritional program (2 weeks). […] Elemental analyses of iron content in the plants leaves was carried out after week 2.

[2] = system: bell pepper plants, Capsicum annuum; experiment: Overall plant growth of bell pepper plants grown hydroponically with Fe chelates; settings: 2 weeks; 4 ppm iron, Steiner hydroponic solution, pH 8; compared with Fe EDTA and Fe EDDHA
Method: as §1, §2, §3, §4

[3] = system: Calibrachoa plants; experiment: Iron content in plant tissue after drench with Fe treatments (elemental analysis), Calibrachoa; settings: 4 ppm drench for 3 weeks; soilless media with lime, target pH 7.0
Method: (§5) In order to establish the efficacy of PP-derived chelates, we applied the PP-Cres-Asp iron chelate to two plant species known in the field to have difficulties in absorbing iron, Calibrachoa and Petunia plants. In this trial, the plants were grown in soilless media (80% peat and 20% perlite) with lime to increase the target pH to 7.0, a pH that is averse to iron uptake in plants. All plants were top dressed with a standard polymer-coated fertilizer to provide the standard nitrogen, phosphorus, and potassium nutrition along with other micro nutrients, excluding iron. Lighting was controlled for 16-hour days. There were 3 treatments of iron added (or not added) to each bucket as follows:
(§6) Treatments 1-3 were applied to the respective plants as a drench for 3 weeks. Following 3 weeks of treatment, tissue samples were gathered from each plant and subjected to elemental analysis for measurement of iron content in the plant tissue.

[4] = system: Petunia plants; experiment: Iron content in plant tissue after drench with Fe treatments (elemental analysis), Petunia; settings: 4 ppm drench for 3 weeks; soilless media with lime, target pH 7.0
Method: as §5, §6

Molecule	Amount of iron delivered / iron content by plant tissue analyses (in words) [1]	Overall growth of the plants [2]	Iron content in plant leaves [1] [ppm]	Fe in plant tissue, Calibrachoa [3] [ppm]	Fe in plant tissue, Petunia [4] [ppm]
CCCc1cc(CN(CC(=O)O)CC(=O)O)c(O)c(OC)c1 [DHE-IDA]	substantially greater than EDTA or EDDHA chelates	comparable to controls using conventional EDTA or EDDHA and superior to plants where only iron salts without chelate were used			
O=C(O)CN(CCN(CC(=O)O)CC(=O)O)CC(=O)O [Fe EDTA, ethylenediaminetetraacetic acid, reference compound]			134	39	45
Cc1ccc(O)c(CN(Cc2cc(C)ccc2O)C(CC(=O)O)C(=O)O)c1 (stereo not drawn) [PP-Cres-Asp]				56	80
ethylenediamine-N,N′-bis(2-hydroxyphenylacetic acid [Fe EDDHA, reference compound]			91		
p-cresol iminodiacetic acid [Cres-IDA]	substantially greater than EDTA or EDDHA chelates				
